The series concerns newborn Swiss mice. As to the kind of experiment: Experiment II: carcinogenicity in newborn mice, chrysene, 7-methylbenz(a)anthracene and K region epoxides (s.c. injection, tumour incidence to 70-75 weeks). The settings on record: for incidence of lung tumours: 7-methylbenz(a)anthracene pair. An excerpt: Br. J. Cancer (1975) 31, 182 THE CARCINOGENICITY OF POLYCYCLIC HYDROCARBON EPOXIDES IN NEWBORN MICE P. L. GROVER, P. SIMS, B. C. V. MITCHLEY AND F. J. C. ROE From the Chester Beatty Research Institute, Institute of Cancer Research, Royal Cancer Hospital, Fulham Road, London, SW3 6JB Received 9 August 1974. […] THE HYPOTHESIS that the carcino- genicity of polycyclic hydrocarbons is associated with the formation of epoxide metabolites (Grover, Hewer and Sims, 1971, 1972; Keysell et al., 1973) is sup- ported by some experimental evidence but remains unproven. […] The epoxides can also act as alkylating agents (Grover and Sims, 1970) and as mutagens (Ames, Sims and Grover, 1972; Huberman et al., 1971; Cookson, Sims and Grover, 1971; Fahmy and Fahmy, 1973). […] The newborn mouse, which is susceptible to carcinogenic polycyclic hydrocarbons (Roe, Rowson and Salaman, 1961; Roe, Mitchley and Walters, 1963; Walters and Roe, 1964, 1966) can be considered as a convenient source of several types of rapidly dividing cells. Consequently we have tested the K region epoxides derived from phenanthrene, benz(a)anthracene, 7-methylbenz(a)anthracene, dibenz(a,h)- anthracene, chrysene and 3-methylchol- anthrene, together with some of the CARCINOGENICITY OF POLYCYCLIC HYDROCARBON EPOXIDES IN MICE 183 parent hydrocarbons, for carcinogenicity using newborn mice. This paper presents the results that were obtained in these experiments. MATERIALS AND METHODS The polycyclic hydrocarbon epoxides, phenanthrene 9,10-oxide, benz(a)anthracene 5,6-oxide, 7-methylbenz(a)anthracene 5,6- oxide, dibenz(a,h)anthracene 5,6-oxide, chry- sene 5,6-oxide and 3-methylcholanthrene 11,12-oxide were prepared from the parent hydrocarbons (Newman and Blum, 1964; Boyland and Sims, 1965; Sims 1966). Two experiments were undertaken fol- lowing similar protocols. For each experi- ment Swiss mice from a specific pathogen- free colony were time mated so as to produce a large number of litters over the course of 2 or 3 days. […] Test compounds were suspended in poly- ethylene glycol (PEG) 400 and injections of 0-02 ml of the suspension were given by introducing a 25 gauge hypodermic needle through the skin near the root of the tail and threading it subcutaneously to deliver the injected material in the interscapular region. Injections were given to every mouse on the first day or first 3 days of life. The details of treatments and numbers of mice of each sex in each group are shown in Table I (Experiment I) and Table II (Ex- periment II). Surviving mice were weaned when they w ere 21 days old. Thereafter, males and females w ere separated and housed 6 per cage in metal boxes. A mixture of sawdust and wood shavings was used as bedding. The mice were fed on a standard cubed diet (Formulation 86 from C. Holdman and Sons (Plow co Feeds), Byers Lane, South Godstone, Surrey) and water was given ad libitum. Mice were inspected daily, and at weekly intervals they were weighed and palpated for tumours and other lesions. […] The experiment was terminated when surviving mice were between 70 and 75 weeks old. A full routine post- mortem examination, which included disten- sion of the urinary bladder with fixative, was carried out. The number of lesions thought to be neoplasms and the size of the largest such lesion in each organ affected were recorded. All tissues with suspected neoplasms were fixed in Bouin's solution. Haematoxylin and eosin stained 5 µm paraffin wax sections were prepared and examined microscopically. RESULTS The results of the two experiments in terms of tumour incidence are sum- marized in […].

The mark [1] stands for this setting: females, 60 µg, 1 treatment (Day 0 only) s.c. in PEG 400.
Setting [2] is: males, 60 µg, 1 treatment (Day 0 only) s.c. in PEG 400.
Where [3] appears, read: females, 100 µg per treatment, 3 treatments.
The mark [4] stands for this setting: females, 100 µg per treatment, 3 treatments (Days 0, 1 and 2) s.c. in PEG 400.
Where [5] appears, read: males, 100 µg per treatment, 3 treatments.
The mark [6] stands for this setting: males, 100 µg per treatment, 3 treatments (Days 0, 1 and 2) s.c. in PEG 400.

As for `Cc1ccc2cc3c(c4c2c1CC4)C1OC1c1ccccc1-3` (stereo not drawn) [3-Methylcholanthrene 11,12-oxide], under “females, 60 µg, 1 treatment”, the “No. of mice examined at p.m. at termination of experiment (70-75th week) with liver tumours” value came to 0, the “No. of mice examined at p.m. at termination of experiment (70-75th week) with lung tumours” value amounted to 3, the “No. of mice examined at p.m. at termination of experiment (70-75th week) with multiple liver tumours” value was 0 and the “No. of mice examined at p.m. at termination of experiment (70-75th week) with multiple lung tumours” value is 1. Besides, under “females, 60 µg, 1 treatment”, the “No. of mice examined at p.m. at termination of experiment (70-75th week) with other tumours” value came out at 0, the “No. of mice examined at p.m. from 50-70th week with liver tumours” value is given as 0, the “No. of mice examined at p.m. from 50-70th week with lung tumours” value was 0 and the “No. of mice examined at p.m. from 50-70th week with other tumours” value is 0. Moreover, under setting [1], the “No. of survivors at 50 weeks” value was determined as 27 and the “No. of survivors at 70 weeks” value was determined as 25. In addition, where the note is “in the doses tested (3 x 100 µg or 1 x 60 µg)”, the “effect on the incidence of liver, lung or other tumours” value is given as “without apparent effect”. Moreover, where the note is “males, 60 µg, 1 treatment”, the “No. of mice examined at p.m. at termination of experiment (70-75th week) with liver tumours” value is on record as 6, the “No. of mice examined at p.m. at termination of experiment (70-75th week) with lung tumours” value is listed as 5, the “No. of mice examined at p.m. at termination of experiment (70-75th week) with multiple liver tumours” value stood at 1 and the “No. of mice examined at p.m. at termination of experiment (70-75th week) with multiple lung tumours” value is recorded as 0. Further, for the setting “males, 60 µg, 1 treatment”, the “No. of mice examined at p.m. at termination of experiment (70-75th week) with other tumours” value amounted to 0, the “No. of mice examined at p.m. from 50-70th week with liver tumours” value came out at 0, the “No. of mice examined at p.m. from 50-70th week with lung tumours” value was 0 and the “No. of mice examined at p.m. from 50-70th week with other tumours” value is 0. For the same compound, under setting [2], the “No. of survivors at 50 weeks” value is given as 28 and the “No. of survivors at 70 weeks” value came to 26.

For the compound `Cc1c2c(cc3ccccc13)-c1ccccc1C1OC21` (stereo not drawn) [7-Methylbenz(a)anthracene 5,6-oxide], the “incidence of lung tumours” value (3 x 100 µg s.c., newborn) is given as “slightly raised”. Also, under setting [3], the “No. of mice examined at p.m. at termination of experiment (70-75th week) with liver tumours” value came out at 0, the “No. of mice examined at p.m. at termination of experiment (70-75th week) with lung tumours” value came to 6, the “No. of mice examined at p.m. at termination of experiment (70-75th week) with multiple liver tumours” value stood at 0 and the “No. of mice examined at p.m. at termination of experiment (70-75th week) with multiple lung tumours” value is given as 3. In addition, under setting [3], the “No. of mice examined at p.m. at termination of experiment (70-75th week) with other tumours” value is given as 0, the “No. of mice examined at p.m. from 50-70th week with liver tumours” value was determined as 0, the “No. of mice examined at p.m. from 50-70th week with lung tumours” value turned out to be 1 and the “No. of mice examined at p.m. from 50-70th week with other tumours” value turned out to be 0. Besides, under setting [4], the “No. of survivors at 50 weeks” value turned out to be 25 and the “No. of survivors at 70 weeks” value is 22. Besides, under setting [5], the “No. of mice examined at p.m. at termination of experiment (70-75th week) with liver tumours” value is 4, the “No. of mice examined at p.m. at termination of experiment (70-75th week) with lung tumours” value came to 2, the “No. of mice examined at p.m. at termination of experiment (70-75th week) with multiple liver tumours” value amounted to 2 and the “No. of mice examined at p.m. at termination of experiment (70-75th week) with multiple lung tumours” value was 2. Further, under setting [5], the “No. of mice examined at p.m. at termination of experiment (70-75th week) with other tumours” value came out at 0, the “No. of mice examined at p.m. from 50-70th week with liver tumours” value is given as 0, the “No. of mice examined at p.m. from 50-70th week with lung tumours” value is reported as 0 and the “No. of mice examined at p.m. from 50-70th week with other tumours” value is on record as 0. Under setting [6], the “No. of survivors at 50 weeks” value is reported as 20 and the “No. of survivors at 70 weeks” value was 20.

`Cc1c2ccccc2cc2c1ccc1ccccc12` [7-Methylbenz(a)anthracene, reference compound]: where the note is “3 x 100 µg s.c., newborn”, the “incidence of lung tumours” value was “slightly raised”. Also, under setting [3], the “No. of mice examined at p.m. at termination of experiment (70-75th week) with liver tumours” value is reported as 0, the “No. of mice examined at p.m. at termination of experiment (70-75th week) with lung tumours” value is 1, the “No. of mice examined at p.m. at termination of experiment (70-75th week) with multiple liver tumours” value is given as 0 and the “No. of mice examined at p.m. at termination of experiment (70-75th week) with multiple lung tumours” value was 1. Also, under setting [3], the “No. of mice examined at p.m. at termination of experiment (70-75th week) with other tumours” value amounted to 1, the “No. of mice examined at p.m. from 50-70th week with liver tumours” value is listed as 0, the “No. of mice examined at p.m. from 50-70th week with lung tumours” value came to 7 and the “No. of mice examined at p.m. from 50-70th week with other tumours” value was determined as 1. Under setting [4], the “No. of survivors at 50 weeks” value is 21 and the “No. of survivors at 70 weeks” value stood at 10. Under setting [5], the “No. of mice examined at p.m. at termination of experiment (70-75th week) with liver tumours” value turned out to be 1, the “No. of mice examined at p.m. at termination of experiment (70-75th week) with lung tumours” value was 3, the “No. of mice examined at p.m. at termination of experiment (70-75th week) with multiple liver tumours” value is listed as 1 and the “No. of mice examined at p.m. at termination of experiment (70-75th week) with multiple lung tumours” value came to 3. Also, under setting [5], the “No. of mice examined at p.m. at termination of experiment (70-75th week) with other tumours” value turned out to be 1, the “No. of mice examined at p.m. from 50-70th week with liver tumours” value is 11, the “No. of mice examined at p.m. from 50-70th week with lung tumours” value stood at 10 and the “No. of mice examined at p.m. from 50-70th week with other tumours” value is given as 0. For the same compound, under setting [6], the “No. of survivors at 50 weeks” value is given as 23 and the “No. of survivors at 70 weeks” value was 4. The “activity in increasing the incidence of liver tumours in males compared with K region epoxide” value (neonatally injected, 3 x 100 µg) was “more active than its K region epoxide”.

As for `c1ccc2c(c1)-c1ccc3ccccc3c1C1OC21` (stereo not drawn) [Chrysene 5,6-oxide], the liver tumour incidence result (3 x 100 µg s.c., newborn) is given as “increased”. Further, under setting [3], the “No. of mice examined at p.m. at termination of experiment (70-75th week) with liver tumours” value stood at 1, the “No. of mice examined at p.m. at termination of experiment (70-75th week) with multiple liver tumours” value was 0, the “No. of mice examined at p.m. at termination of experiment (70-75th week) with multiple lung tumours” value worked out at 0 and the “No. of mice examined at p.m. at termination of experiment (70-75th week) with other tumours” value was 0. In addition, under setting [3], the “No. of mice examined at p.m. from 50-70th week with liver tumours” value stood at 0, the “No. of mice examined at p.m. from 50-70th week with lung tumours” value was found to be 0 and the “No. of mice examined at p.m. from 50-70th week with other tumours” value was 0. Besides, under setting [4], the “No. of survivors at 50 weeks” value was determined as 22 and the “No. of survivors at 70 weeks” value is recorded as 20. For the same compound, under setting [5], the “No. of mice examined at p.m. at termination of experiment (70-75th week) with liver tumours” value was 8, the “No. of mice examined at p.m. at termination of experiment (70-75th week) with lung tumours” value was 0, the “No. of mice examined at p.m. at termination of experiment (70-75th week) with multiple liver tumours” value was 3 and the “No. of mice examined at p.m. at termination of experiment (70-75th week) with multiple lung tumours” value turned out to be 0. Moreover, under setting [5], the “No. of mice examined at p.m. at termination of experiment (70-75th week) with other tumours” value came to 0, the “No. of mice examined at p.m. from 50-70th week with liver tumours” value is given as 0, the “No. of mice examined at p.m. from 50-70th week with lung tumours” value was 0 and the “No. of mice examined at p.m. from 50-70th week with other tumours” value came to 0. Under setting [6], the “No. of survivors at 50 weeks” value was 23 and the “No. of survivors at 70 weeks” value is listed as 21.
